Here are results for four molecules from ChEMBL document CHEMBL1129698, “Homo-N-nucleosides: Incorporation into oligonucleotides and antiviral activity” (1996).

Each structure is given as a SMILES string. Converted amounts (≈) assume the structure as drawn.

Common to all, as to type: functional
Experiment [1] can be described thus: Minimum cytotoxic concentration required to cause a microscopically detectable alteration of normal cell morphology.
In experiment [2] the test system is Human alphaherpesvirus 1. Description: Compound was tested for the antiviral activity against herpes simplex virus-1 thymidine kinase deficient (HSV-1 TK-) VMW 1837 strain.
Experiment [3] relates to Human alphaherpesvirus 1. The experiment is described as follows: Compound was tested for the antiviral activity against herpes simplex virus-1 thymidine kinase deficient (HSV-1 TK-) B2006 strain.
The next experiment deals with Human alphaherpesvirus 2. Description: Compound was tested for the antiviral activity against herpes simplex virus-2 (HSV-2) G strain.
Experiment [4] relates to Human alphaherpesvirus 1. Description: Compound was tested for the antiviral activity against herpes simplex virus-1 (HSV-1) KOS strain.

Regarding `NC1=NC(=O)C2N=CN(C[C@H]3C[C@H](O)[C@@H](CO)O3)C2=N1` (stereo not given in full), the MIC is > 400 µg/mL in experiment [1]; 12 µg/mL (≈ 42.7 µM) with Human alphaherpesvirus 1 [2]; 12 µg/mL (≈ 42.7 µM) against Human alphaherpesvirus 1 [3]; 5 µg/mL (≈ 17.8 µM) against Human alphaherpesvirus 2; 5 µg/mL (≈ 17.8 µM) against Human alphaherpesvirus 1 [4].

As for `Nc1ncnc2c1ncn2C[C@H]1C[C@H](O)[C@@H](CO)O1`, the MIC in experiment [1] is > 400 µg/mL; in the experiment with Human alphaherpesvirus 1 [2], 8 µg/mL (≈ 30.2 µM); against Human alphaherpesvirus 1 [3], 10 µg/mL (≈ 37.7 µM); in the experiment with Human alphaherpesvirus 2 it was 6 µg/mL (≈ 22.6 µM); in the experiment on Human alphaherpesvirus 1 [4], 20 µg/mL (≈ 75.4 µM).

With `Nc1nc2c(ncn2COCCO)c(=O)[nH]1` [ACYCLOVIR], the MIC was > 400 µg/mL in experiment [1]; 4 µg/mL (≈ 17.8 µM) with Human alphaherpesvirus 1 [2]; 80 µg/mL (≈ 355 µM) with Human alphaherpesvirus 1 [3]; 0.03 µg/mL (≈ 0.133 µM) in the experiment with Human alphaherpesvirus 2; 0.02 µg/mL (≈ 0.0888 µM) with Human alphaherpesvirus 1 [4].

As for `O=c1[nH]c(=O)n([C@H]2C[C@H](O)[C@@H](CO)O2)cc1/C=C/Br` [BRIVUDINE], the MIC in experiment [1] is 200 µg/mL (≈ 600 µM); with Human alphaherpesvirus 1 [2] it was 30 µg/mL (≈ 90.1 µM); in the experiment on Human alphaherpesvirus 1 [3], 20 µg/mL (≈ 60 µM); against Human alphaherpesvirus 2, > 100 µg/mL; against Human alphaherpesvirus 1 [4], 0.007 µg/mL (≈ 0.021 µM).
